US20070015817A1, “4-((4-(2-pyrrolidinylethoxy)phenyl)methyl)-3-(4-(trifluoromethyl)phenyl)-7-hydroxychromen-2one, pharmaceutically acceptable salts thereof and methods of use therewith” (priority 2002, published 2007)

Tests used:
Assay type in all cases: cell-based
[1] = tested on: IL-6 release from human U-2 OS osteosarcoma cells stably transfected with human ER-α; test: Inhibition of IL-6 release; settings: U2OS; U-2 OS cells transfected with human ER-α, stimulated with 2.5 ng/ml TNFα and 1 ng/ml IL-1, IL-6 by ELISA after 24 h, relative to vehicle
Description: Illustrative benzopyranone compounds were tested for their ability to inhibit IL-6 release from human U-2 OS osteosarcoma cells stably transfected with human ER-α. (Stein, B.; Yang, M. X. Mol. Cell. Biol 15: 4971-4979, 1995; Poli, V. et. al., EMBO J. 13:1189-1196, 1994). […] Benzopyranone compounds having an IC50<100 nM are particularly useful as bone resorption inhibitors in vivo. Accordingly, the compounds of this assay, illustrative benzopyranone compounds, are particularly useful for the treatment of osteoporosis, Paget's disease and metastatic bone cancer. These compounds are also useful as anti-cancer agents as elevated IL-6 levels are responsible for certain cancers such as multiple myeloma, prostate cancer, ovarian cancer, renal carcinoma and cervical carcinoma.
Human U-2 OS osteosarcoma cells (ATCC) were stably transfected with expression vectors for human full-length ER-α using standard molecular biology techniques. Stable subclones were generated that expressed high levels of ER-α mRNA. The expression of ER-α was confirmed using RNase protection analysis.
Cells were plated into 96-well plates at a density of 80,000 cells per well in phenol red-free media with charcoal-stripped fetal calf serum. Twenty four hours later, cells were either treated with vehicle (0.2% DMSO) or test compound (0.01 B 100 nm in 0.2% DMSO). Thirty minutes later cells were stimulated with 2.5 ng/ml TNFα and 1 ng/ml IL-1. Twenty-four hours later the media supernatant was analyzed for cytokine production (IL-6) using commercially available ELISA kits following the manufacturer=s instructions. Cytokine production in the presence of vehicle (0.2% DMSO) was set to 100%. The results are expressed as IC50 (nM) values (Table 2) which is the concentration of the benzopyranone compound necessary to inhibit the production of IL-6 50% relative to the amount of IL-6 produced in the presence of vehicle.

[2] = tested on: MCF-7 breast cancer cells; test: Inhibition of MCF-7 breast cancer cell proliferation; settings: Homo sapiens, MCF7; 0.1 nM 17β-estradiol-dependent growth, 72 h, 3H-thymidine incorporation
Description: MCF-7 cells represent an excellent in vitro system to study the effects of compounds on estrogen-dependent breast cancer growth. (May, F.E.B.; Westley, B. R. J. Biol. Chem. 262:15894-15899, 1987). Benzopyranone compounds having an IC50<100 nM are particularly useful as anti-breast cancer agents in vivo.
MCF-7 breast carcinoma cells were plated in 24-well dishes at a density of 5×10^3 cells/well in phenol-red free DMEM:F-12 (1:1) medium containing 1% antibiotics, 0.05% mercaptoethanol, 0.01% ethanolamine, 0.42 ng/mL sodium selenite and 5% charcoal-stripped FCS.
Illustrative benzopyranone compounds (0.1-1000 nM in 0.2% DMSO) and 0.1 nM 17β-estradiol were added to the cultured MCF-7 breast cancer cells for 72 h. Subsequently, 3H-labeled thymidine was added and its incorporation into cells was measured following 4h incubation. The results are expressed as IC50 (nM) values (Table 2) which is the concentration of the benzopyranone compound necessary to inhibit the growth of MCF-7 breast cancer cells by 50% relative to controls.

[3] = tested on: BG-1 ovarian carcinoma cells; test: Inhibition of BG-1 ovarian carcinoma cell proliferation; settings: 0.1 nM 17β-estradiol-dependent growth, 72 h, 3H-thymidine incorporation
Description: BG-1 cells serve as a useful in vitro model for the evaluation of the effects of antiestrogenic compounds on ovarian tumor growth (Greenberger, L. M. et. al., Clin. Cancer Res. 7:3166-3177, 2001). Benzopyranone compounds having an IC50<100 nM are particularly useful as anti-ovarian cancer agents in vivo.
BG-1 ovarian carcinoma cells were plated in 24-well dishes at a density of 5×10^3 cells/well in phenol-red free DMEM:F-12 (1:1) medium containing 1% antibiotics, 0.05% mercaptoethanol, 0.01% ethanolamine, 0.42 ng/mL sodium selenite and 5% charcoal-stripped FCS. Illustrative benzopyranone compounds (0.1-1000 nM in 0.2% DMSO) and 0.1 nM 17β-estradiol were added to the cultured BG-1 ovarian carcinoma cells and incubated for 72 h. Subsequently, ^3H-labeled thymidine was added and its incorporation into cells was measured following 4h incubation. The results are expressed as IC50 (nM) values (Table 2) which is the concentration of the benzopyranone compound necessary to inhibit the growth of BG-1 ovarian carcinoma cells by 50% relative to controls.

SMILES	IC50 [1]	IC50 [2]	IC50 [3]
O=c1oc2cc(O)ccc2c(Cc2ccc(OCCN3CCCC3)cc2)c1-c1ccc(C(F)(F)F)cc1	1.5 nM	13.6 nM	13.6 nM
O=c1oc2cc(O)ccc2c(Cc2ccc(OCCN3CCCC3)cc2)c1-c1ccc(C(F)(F)F)cc1Cl	0.5 nM	4.5 nM	4.65 nM
O=c1oc2cc(O)ccc2c(Cc2ccc(OCCN3CCCC3)cc2)c1-c1ccc(C(F)(F)F)cc1C(F)(F)F	1 nM	26 nM	5.5 nM
O=c1oc2cc(O)ccc2c(Cc2ccc(OCCN3CCCC3)cc2)c1-c1ccc(Cl)cc1	0.4 nM	26 nM	5.8 nM

Other lines, results leading:

IC50 [1]	IC50 [2]	IC50 [3]	SMILES
0.4 nM	3 nM	2.3 nM	O=c1oc2cc(O)ccc2c(Cc2ccc(OCCN3CCCC3)cc2)c1-c1ccc(Cl)cc1C(F)(F)F
0.29 nM	6.5 nM	1.4 nM	O=c1oc2cc(O)ccc2c(Cc2ccc(OCCN3CCCC3)cc2)c1-c1ccc(Cl)cc1Cl
